Results: patent publication US10035791B2, “Bicyclic compound and pharmaceutical composition thereof for treating stroke and use thereof” (China Medical University, priority 2016, dated 2018)

Columns and labels:
[1] = tested on: NSCs; assay: Neurosphere self-renewal assay of the NSCs; assay type: cell-based, mice; details: 0.1, 1, 10 μM for 16 hours vs control group, especially 1 μM
Procedure: To determine whether the HIF-1α-Bmi-1 pathway regulates the proliferation of the NSCs a neurosphere self-renewal assay is performed in this example. In the neurosphere self-renewal assay, the NSCs are cultured in non-adherent cultures to form neurospheres for examining the effect of the HIF-1α-Bmi-1 pathway on the self-renewal of the neurosphere.
To prepare the NSCs, after removal of meninges, subventricular zones (SVZ) of lateral ventricles from adult mice brain (4 week-of-age) are aseptically isolated and dissociated as previously described (J Cell Sci 2006; 119, 4467-4474). All steps are operated under sterile conditions. Then, neurosphere culture are prepared in neurobasal (NB) medium (Gibco BRL) supplemented with 2% of B27 (Gibco BRL), 2 mM of L-glutamine (PAN Biotech), 100 U/ml of penicillin/0.1 mg/L of streptomycin (Gibco BRL). For maintenance and expansion of the cultures, the NB/B27 is further supplemented with 2 μg/mL of heparin (Sigma), 20 ng/mL of FGF-2 (R&D Systems) and 20 ng/mL of EGF (R&D Systems). Neurosphere cultures are maintained at 37° C. in a humidified incubator with 5% CO2. For clonal/low density cultures, primary neurospheres grown at high density are dissociated into a single cell suspension and reseeded into 96-well plates at 100 cells per ml of media and the number of newly formed neurospheres is counted after 7 days. In addition, the Bmi-1 expressions, SOX2 expressions, Nestin expressions, Musashi-1 expressions, BrdU expressions and ki-67 expressions of the newly formed neurospheres are determined by the immunofluorescence staining.
In another example, the NSCs are treated with different dosages of the Compound 1 (0.1 μM, 1 μM and 10 μM) for 16 hours, wherein the NSCs treated with 1 μM of the Compound 1 are further transduced with the LV-Bmi-1-sh or LV-HIF-1α-sh respectively. Then the NSCs are cultured in the neurosphere culture to observe the frequency of the neurosphere formation, the self-renewal potential of the NSCs and the neurosphere size. […]

[2] = tested on: ischemic rats; assay: Volume of the infarction after cerebral ischemia, TTC staining; assay type: in vivo, Sprague-Dawley (SD) rats; details: 0.1, 1, 10 mg/kg intraperitoneal, 2 days after treatment, vs control, in particular 1 mg/kg, FIGS. 17A, 17B
Description: The ischemic rats are induced by an ischemia-reperfusion model to simulate transient focal cerebral ischemia in rats. Test animals are male Sprague-Dawley (SD) rats weighing 250-300 g. The rats are anesthetized with chloral hydrate (0.4 g/kg IP) and subjected to cerebral ischemia. The ischemia-reperfusion model is induced by ligations of bilateral common carotid arteries (CCAs) and a right middle cerebral artery (MCA). The bilateral CCAs are clamped with non-traumatic arterial clips, and the right MCA is ligated with an 10-0 nylon suture. After 90 minutes ischemia, the suture on the MCA and the arterial clips on CCAs are removed to allow reperfusion. Core body temperature is monitored with a thermistor probe (Hewlett-Packard Model 21090A probe, Hewlett-Packard Company, Andover, Mass.), and maintained at 37° C. with a heating pad during anesthesia. After recovery from anesthesia, rat body temperature is maintained at 37° C. with a heat lamp.
In addition, the ischemic rats are intraperitoneal injected with different dosages of the Compound 1 (0.1 mg/kg, 1 mg/kg and 10 mg/kg). The ischemic rats intraperitoneal injected with vehicle are used as the control. At 2 days after the Compound 1 treatment, the ischemic rats are intracardially perfused with PBS. The brain tissues are removed, immersed in cold PBS, and sliced into 2-mm-thick sections. […]

[3] = tested on: HIF-1α; assay: Nuclear translocation of the HIF-1α in the PCCs under hypoxia, double immunofluorescence; assay type: cell-based, C57BL/6 mice; details: 1 μM 2-ME2 for 16 hours, then 1% O2 for 8 hours, FIG. 6A
Procedure: (§1) Test cells are primary cortical cultures (PCCs) in this example. The PCCs are prepared from cerebral cortexes of gestation day 17 embryos from C57BL/6 mice as described previously (Cell Death Differ 2008; 15: 143-151). The PCCs are maintained under serum-free conditions in neurobasal medium (Invitrogen), supplemented with B-27 supplement (2%; invitrogen), glutamine (0.5 mM; Sigma Aldrich), glutamate ([…]; Sigma Aldrich), penicillin (100 U/ml) and streptomycin ([…]; Invitrogen). At 4 days in vitro, half of the medium is removed and replaced with fresh medium without glutamate. The cultures are maintained in a humidified incubator at 37° C. with 5% CO2. At 7 days in vitro, the PCCs are used for experimentation.
The subcellular locations of the HIF-1α and the Bmi-1 in the PCCs under hypoxia are examined by double immunofluorescence study. The PCCs are divided into three groups. One group is cultured with 21% of O2 as a control group. Another group is cultured with 1% of O2 for 8 hours as a hypoxic group. The other group is treated with 1 μM of 2-ME2 for 16 hours and then cultured with 1% of O2 for 8 hours as a 2-ME2 treated hypoxic group.

[4] = tested on: Bmi-1; assay: Bmi-1 expressions in the PCCs with hypoxic treatment, Western blot; assay type: cell-based, C57BL/6 mice
Procedure: as §1
The relationship between the HIF-1α activation and the Bmi-1 expressions is further analyzed by the Western blot analysis in this example. […] One group of the PCCs is transfected with LV-Bmi-1 to transient express the Bmi-1. Another group of the PCCs is treated with 1 μM of 2-ME2 for 16 hours and then transfected with the LV-Bmi-1. The other group of the PCCs is transfected with LV-GFP as the control group. In FIG. 6B, the PCCs transfected with the LV-Bmi-1 overexpress the Bmi-1. However, the overexpressions of the Bmi-1 are not affected by the pretreatment of the PCCs with 2-ME2. […]

SMILES | frequency of the neurosphere formation ([1]; FIG. 11F) | self-renewal potential of the NSCs ([1]; FIG. 11G) | neurosphere size ([1]; FIG. 11H) | volume of the infarction (TTC staining) [2] | translocation of the HIF-1α to the nucleus under hypoxia [3] | overexpressions of the Bmi-1 in PCCs transfected with the LV-Bmi-1 ([4]; 1 μM 2-ME2 for 16 hours before transfection, FIG. 6B) | Bmi-1 expressions of the PCCs ([4]; 1 μM 2-ME2 for 16 hours, hypoxic treatment, FIG. 6C)
COC(=O)C1=CO[C@@H](O)[C@@H]2C(COC(=O)[C@@H](N)Cc3ccccc3)=CC[C@H]12 [Compound 1] | significantly higher frequency of the neurosphere formation | more self-renewal potential | larger neurosphere size | much smaller |  |  | 
COc1cc2c(cc1O)CC[C@@H]1[C@@H]2CC[C@]2(C)[C@@H](O)CC[C@@H]12 [Compound 2-ME2, 2-Methoxyestradiol, reference compound] |  |  |  |  | abolishes the translocation | not affected | reduced
